Patent US9428503B2, “Imidazo[4,5-c]quinolin-2-one compounds and their use in treating Cancer” (AstraZeneca AB, priority 2014, dated 2016)
Values joined by “and” are separate entries in the source; they are usually repeats but may differ in a detail not shown here. Equal entries are not always repeated. Structures can show the parent of a compound that is named as a salt.

Experiments:
Assay type in all cases: cell-based
[1] = molecular target: mTOR (Homo sapiens (Human), UniProt P42345); assay: Assay d) mTOR cellular potency assay (phospho-AKT Ser473 in MDA-MB-468 cells); settings: MDA-MB-468 cells, phospho-AKT Ser473, 2 h; geometric mean where repeated; read-out: Assay d) mTOR Cell IC50
[2] = molecular target: ATR kinase (Homo sapiens (Human), UniProt Q13535); assay: Assay b) ATR cellular potency assay (pChk1 Ser345 in HT29 cells treated with 4NQO); settings: HT29 cells, pChk1 Ser345 after 4NQO; geometric mean where repeated; read-out: Assay b) ATR Cell IC50
[3] = molecular target: PI3K-α (Homo sapiens, UniProt P42336); assay: Assay c) PI3K cellular potency assay (phospho-Akt T308 ELISA in BT474 cells); settings: BT474 cells, phospho-Akt T308, 2 h; geometric mean where repeated; read-out: Assay c) PI3Kα Cell IC50
[4] = molecular target: ATM kinase (Homo sapiens (Human), UniProt Q13315); assay: Assay a) ATM cellular potency assay (pATM Ser1981 in X-ray irradiated HT29 cells); settings: HT29 cells, pATM Ser1981 after X-ray irradiation; geometric mean where repeated; read-out: Assay a) ATM Cell IC50
Sequence of ATM kinase (Q13315 whole entry): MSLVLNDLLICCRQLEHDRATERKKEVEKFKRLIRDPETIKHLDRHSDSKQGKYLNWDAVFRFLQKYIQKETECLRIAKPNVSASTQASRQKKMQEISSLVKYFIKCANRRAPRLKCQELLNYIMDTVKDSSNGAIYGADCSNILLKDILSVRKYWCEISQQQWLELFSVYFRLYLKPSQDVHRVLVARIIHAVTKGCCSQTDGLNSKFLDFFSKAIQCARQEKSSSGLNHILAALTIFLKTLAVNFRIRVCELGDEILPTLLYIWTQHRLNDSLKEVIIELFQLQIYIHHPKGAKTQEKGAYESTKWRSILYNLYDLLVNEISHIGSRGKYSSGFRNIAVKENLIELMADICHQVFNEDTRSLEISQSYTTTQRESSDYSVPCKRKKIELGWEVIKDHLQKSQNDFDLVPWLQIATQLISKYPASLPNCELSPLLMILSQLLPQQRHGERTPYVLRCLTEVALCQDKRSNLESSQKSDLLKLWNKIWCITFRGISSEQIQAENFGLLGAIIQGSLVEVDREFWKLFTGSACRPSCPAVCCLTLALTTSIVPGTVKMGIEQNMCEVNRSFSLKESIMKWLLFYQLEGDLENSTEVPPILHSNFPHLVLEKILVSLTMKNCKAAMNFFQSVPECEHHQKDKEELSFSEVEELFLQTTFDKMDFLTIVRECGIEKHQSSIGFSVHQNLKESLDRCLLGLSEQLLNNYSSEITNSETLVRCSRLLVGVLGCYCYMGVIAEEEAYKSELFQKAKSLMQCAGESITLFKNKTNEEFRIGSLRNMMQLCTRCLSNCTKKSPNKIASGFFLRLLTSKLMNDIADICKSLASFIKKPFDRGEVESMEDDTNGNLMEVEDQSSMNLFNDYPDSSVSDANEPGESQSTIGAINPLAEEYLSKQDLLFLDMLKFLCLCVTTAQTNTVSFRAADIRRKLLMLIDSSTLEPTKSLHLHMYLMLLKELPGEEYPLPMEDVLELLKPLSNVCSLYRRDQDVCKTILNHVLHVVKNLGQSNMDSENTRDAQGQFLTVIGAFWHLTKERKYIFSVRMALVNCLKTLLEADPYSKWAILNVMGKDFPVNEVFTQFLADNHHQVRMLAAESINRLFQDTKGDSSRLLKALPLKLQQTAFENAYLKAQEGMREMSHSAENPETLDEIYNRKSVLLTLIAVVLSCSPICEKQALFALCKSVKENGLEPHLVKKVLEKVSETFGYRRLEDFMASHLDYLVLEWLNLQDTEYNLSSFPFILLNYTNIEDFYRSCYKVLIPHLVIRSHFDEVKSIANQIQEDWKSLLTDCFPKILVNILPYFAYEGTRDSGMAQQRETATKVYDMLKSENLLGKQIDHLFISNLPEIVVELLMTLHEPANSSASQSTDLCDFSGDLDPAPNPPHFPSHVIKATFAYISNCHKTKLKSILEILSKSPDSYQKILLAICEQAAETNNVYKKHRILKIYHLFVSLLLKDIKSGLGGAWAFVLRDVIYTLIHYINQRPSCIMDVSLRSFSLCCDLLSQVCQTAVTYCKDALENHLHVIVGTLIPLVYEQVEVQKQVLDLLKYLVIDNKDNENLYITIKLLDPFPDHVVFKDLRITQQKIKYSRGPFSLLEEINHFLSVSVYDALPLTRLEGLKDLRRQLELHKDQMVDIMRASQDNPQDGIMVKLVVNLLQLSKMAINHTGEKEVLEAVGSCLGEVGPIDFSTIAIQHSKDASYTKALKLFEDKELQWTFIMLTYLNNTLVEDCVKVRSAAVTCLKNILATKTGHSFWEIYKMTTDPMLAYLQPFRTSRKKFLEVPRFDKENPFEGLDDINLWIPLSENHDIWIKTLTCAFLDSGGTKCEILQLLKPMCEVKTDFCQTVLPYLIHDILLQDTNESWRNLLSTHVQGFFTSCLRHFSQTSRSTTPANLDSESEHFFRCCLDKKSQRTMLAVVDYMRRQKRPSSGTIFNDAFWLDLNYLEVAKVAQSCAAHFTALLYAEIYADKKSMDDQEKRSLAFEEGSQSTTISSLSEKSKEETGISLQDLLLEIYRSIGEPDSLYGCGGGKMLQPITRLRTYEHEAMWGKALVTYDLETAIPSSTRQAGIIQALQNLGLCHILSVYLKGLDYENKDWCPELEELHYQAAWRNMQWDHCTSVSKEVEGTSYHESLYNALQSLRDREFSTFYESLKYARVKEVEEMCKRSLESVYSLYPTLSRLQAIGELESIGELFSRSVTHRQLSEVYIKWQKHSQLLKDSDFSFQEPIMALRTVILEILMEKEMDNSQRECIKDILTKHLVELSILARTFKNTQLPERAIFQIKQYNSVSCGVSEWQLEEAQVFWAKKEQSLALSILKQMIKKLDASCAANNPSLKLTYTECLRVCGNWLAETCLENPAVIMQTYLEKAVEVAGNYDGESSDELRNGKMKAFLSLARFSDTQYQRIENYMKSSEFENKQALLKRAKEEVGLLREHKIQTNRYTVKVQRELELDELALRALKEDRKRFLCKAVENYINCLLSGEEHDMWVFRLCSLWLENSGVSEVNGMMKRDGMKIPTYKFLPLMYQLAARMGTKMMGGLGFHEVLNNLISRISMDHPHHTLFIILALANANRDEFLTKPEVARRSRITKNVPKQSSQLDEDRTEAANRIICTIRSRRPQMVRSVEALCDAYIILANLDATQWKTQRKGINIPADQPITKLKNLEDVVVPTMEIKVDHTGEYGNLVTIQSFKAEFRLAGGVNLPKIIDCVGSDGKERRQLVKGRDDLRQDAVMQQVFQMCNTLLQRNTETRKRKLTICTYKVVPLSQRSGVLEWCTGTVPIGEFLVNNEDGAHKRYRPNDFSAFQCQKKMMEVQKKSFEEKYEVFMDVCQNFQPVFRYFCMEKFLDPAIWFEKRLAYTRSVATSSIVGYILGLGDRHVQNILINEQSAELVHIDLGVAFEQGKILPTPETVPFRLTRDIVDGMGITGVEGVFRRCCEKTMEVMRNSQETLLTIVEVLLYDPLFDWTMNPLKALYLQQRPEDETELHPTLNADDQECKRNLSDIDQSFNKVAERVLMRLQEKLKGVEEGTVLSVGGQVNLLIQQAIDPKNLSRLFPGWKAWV

Sequence of PI3K-α (P42336 whole entry, looked up): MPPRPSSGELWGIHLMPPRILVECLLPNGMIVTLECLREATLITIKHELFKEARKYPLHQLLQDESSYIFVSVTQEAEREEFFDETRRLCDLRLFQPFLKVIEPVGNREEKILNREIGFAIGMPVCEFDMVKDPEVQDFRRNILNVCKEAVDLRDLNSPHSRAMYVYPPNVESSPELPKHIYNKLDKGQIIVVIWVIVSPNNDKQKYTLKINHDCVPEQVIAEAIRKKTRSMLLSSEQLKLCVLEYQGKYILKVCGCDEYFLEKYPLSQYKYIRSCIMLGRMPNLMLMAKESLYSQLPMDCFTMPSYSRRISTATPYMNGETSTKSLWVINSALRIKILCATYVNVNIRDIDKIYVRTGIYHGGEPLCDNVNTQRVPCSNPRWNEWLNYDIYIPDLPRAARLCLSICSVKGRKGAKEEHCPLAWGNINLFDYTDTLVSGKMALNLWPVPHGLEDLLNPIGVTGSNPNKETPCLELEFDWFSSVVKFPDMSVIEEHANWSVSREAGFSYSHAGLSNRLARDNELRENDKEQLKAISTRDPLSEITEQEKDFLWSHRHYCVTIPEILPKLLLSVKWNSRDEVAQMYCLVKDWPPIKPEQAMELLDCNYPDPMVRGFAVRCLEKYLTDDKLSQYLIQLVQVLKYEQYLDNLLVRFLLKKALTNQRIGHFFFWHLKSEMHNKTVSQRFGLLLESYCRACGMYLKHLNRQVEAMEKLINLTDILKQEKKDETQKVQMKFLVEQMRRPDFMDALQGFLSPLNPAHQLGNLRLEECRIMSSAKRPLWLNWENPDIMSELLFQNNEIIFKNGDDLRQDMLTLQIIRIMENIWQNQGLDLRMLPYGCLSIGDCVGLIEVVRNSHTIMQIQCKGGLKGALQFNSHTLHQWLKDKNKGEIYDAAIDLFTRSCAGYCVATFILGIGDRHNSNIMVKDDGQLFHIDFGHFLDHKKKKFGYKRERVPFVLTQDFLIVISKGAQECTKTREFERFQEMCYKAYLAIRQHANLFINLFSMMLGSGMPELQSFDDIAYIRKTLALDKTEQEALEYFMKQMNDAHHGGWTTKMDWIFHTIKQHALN

Compound | IC50 [1] [nM] | IC50 [2] [nM] | IC50 [3] [nM] | IC50 [4]
Cn1c(=O)n([C@@H]2CCCOC2)c2c3cc(-c4ccc(OCCCN5CCCC5)nc4)ccc3ncc21 [Example 59, 3-methyl-8-[6-(3-pyrrolidin-1-ylpropoxy)-3-pyridyl]-1-[(3R)-tetrahydropyran-3-yl]imidazo[4,5-c]quinolin-2-one] | 610 | > 19100 | 264 | –
CO[C@H]1CC[C@H](n2c(=O)n(C)c3cnc4ccc(-c5ccc(OCCCN6CCCC6)nc5)cc4c32)C1 [Example 66, 1-[(1S,3S)-3-methoxycyclopentyl]-3-methyl-8-[6-(3-pyrrolidin-1-ylpropoxy)-3-pyridyl]imidazo[4,5-c]quinolin-2-one] | 3320 | 7850 | 1490 | –
CO[C@H]1C[C@@H](n2c(=O)n(C)c3cnc4ccc(-c5ccc(OCCCN6CCCCC6)nc5)cc4c32)C1 [Example 33, 1-(cis-3-methoxycyclobutyl)-3-methyl-8-[6-(3-piperidin-1-ylpropoxy)pyridin-3-yl]imidazo[4,5-c]quinolin-2-one] | 2870 | – | 12400 | –
CN(C)CCCOc1ccc(-c2ccc3ncc4c(c3c2)n([C@@H]2CCOC2)c(=O)n4C)c(F)n1 [Example 50] | 4480 | > 30000 | – | 1.44 nM
Cn1c(=O)n([C@H]2CCOC2)c2c3cc(-c4ccc(OCCCN5CCCCC5)nc4)ccc3ncc21 [Example 55, 3-methyl-8-[6-[3-(1-piperidyl)propoxy]-3-pyridyl]-1-[(3S)-tetrahydrofuran-3-yl]imidazo[4,5-c]quinolin-2-one] | – | > 16100 | – | 0.493 nM
CO[C@@H]1CC[C@@H](n2c(=O)n(C)c3cnc4ccc(-c5ccc(OCCCN6CCCC6)nc5)cc4c32)C1 [Example 67, 1-[(1R,3R)-3-methoxycyclopentyl]-3-methyl-8-[6-(3-pyrrolidin-1-ylpropoxy)-3-pyridyl]imidazo[4,5-c]quinolin-2-one] | 996 | 15200 | > 2850 | –
CN(C)CCCOc1ccc(-c2ccc3ncc4c(c3c2)n(C2CCC2)c(=O)n4C)cn1 [Example 46, 1-cyclobutyl-8-[6-[3-(dimethylamino)propoxy]-3-pyridyl]-3-methyl-imidazo[4,5-c]quinolin-2-one methanesulfonic acid salt] | – | > 26000 | 794 | 3.15 nM
CO[C@H]1C[C@@H](n2c(=O)n(C)c3cnc4cc(F)c(-c5ccc(OCCCN6CCCC6)nc5)cc4c32)C1 [Example 27, 7-Fluoro-1-(cis-3-methoxycyclobutyl)-3-methyl-8-[6-(3-pyrrolidin-1-ylpropoxy)pyridin-3-yl]imidazo[4,5-c]quinolin-2-one] | > 17500 | > 23300 | > 29800 | –
CO[C@H]1C[C@@H](n2c(=O)n(C)c3cnc4ccc(-c5ccc(OCCCN(C)C)nc5F)cc4c32)C1 [Example 18, 8-[6-(3-dimethylaminopropoxy)-2-fluoropyridin-3-yl]-1-(cis-3-methoxycyclobutyl)-3-methylimidazo[4,5-c]quinolin-2-one] | 3780 | > 30000 | 2730 | –
CN(C)CCCOc1ccc(-c2ccc3ncc4c(c3c2)n(C2COC2)c(=O)n4C)c(F)n1 [Example 52, 8-[6-[3-(dimethylamino)propoxy]-2-fluoro-3-pyridyl]-3-methyl-1-(oxetan-3-yl)imidazo[4,5-c]quinolin-2-one methanesulfonic acid salt] | 12100 | > 30000 | 7200 | –
Cn1c(=O)n([C@H]2CCCOC2)c2c3cc(-c4ccc(OCCCN5CCCC5)nc4F)ccc3ncc21 [Example 61, 8-[2-Fluoro-6-(3-pyrrolidin-1-ylpropoxy)-3-pyridyl]-3-methyl-1-[(3S)-tetrahydropyran-3-yl]imidazo[4,5-c]quinolin-2-one] | – | > 30000 | > 16200 | 0.554 nM
CN(C)CCCOc1ccc(-c2ccc3ncc4c(c3c2)n([C@H]2CCCOC2)c(=O)n4C)cn1 [Example 17, 8-[6-(3-dimethylaminopropoxy)pyridin-3-yl]-3-methyl-1-[(3S)-oxan-3-yl]imidazo[5,4-c]quinolin-2-one] | 1470 | > 30000 | 968 | –
CO[C@H]1CC[C@H](n2c(=O)n(C)c3cnc4ccc(-c5ccc(OCCCN(C)C)nc5F)cc4c32)C1 [Example 69, 8-[6-[3-(dimethylamino)propoxy]-2-fluoro-3-pyridyl]-1-[(1S,3S)-3-methoxycyclopentyl]-3-methyl-imidazo[4,5-c]quinolin-2-one] | – | > 30000 | > 2770 | 0.324 nM
Cn1c(=O)n(C2CCOCC2)c2c3cc(-c4ccc(OCCCN5CCCC5)nc4)ccc3ncc21 [Example 30, 3-methyl-1-(oxan-4-yl)-8-[6-(3-pyrrolidin-1-ylpropoxy)pyridin-3-yl]imidazo[5,4-c]quinolin-2-one] | 1570 | 19000 | 2330 | –
CN(C)CCCOc1ccc(-c2ccc3ncc4c(c3c2)n([C@H]2CCOC2)c(=O)n4C)c(F)n1 [Example 49, 8-[6-[3-(dimethylamino)propoxy]-2-fluoro-3-pyridyl]-3-methyl-1-[(3S)-tetrahydrofuran-3-yl]imidazo[4,5-c]quinolin-2-one methanesulfonic acid salt] | 3760 | > 30000 | – | 1.34 nM
Cn1c(=O)n([C@@H]2CCOC2)c2c3cc(-c4ccc(OCCCN5CCCCC5)nc4)ccc3ncc21 [Example 54, 3-methyl-8-[6-[3-(1-piperidyl)propoxy]-3-pyridyl]-1-[(3R)-tetrahydrofuran-3-yl]imidazo[4,5-c]quinolin-2-one methane sulfonic acid salt] | – | > 27100 | – | 1.1 nM and 0.715 nM
CO[C@@H]1CC[C@@H](n2c(=O)n(C)c3cnc4cc(F)c(-c5ccc(OCCCN(C)C)nc5)cc4c32)C1 [Example 62, 8-[6-[3-(Dimethylamino)propoxy]-3-pyridyl]-7-fluoro-1-[(1R,3R)-3-methoxycyclopentyl]-3-methyl-imidazo[4,5-c]quinolin-2-one] | > 30000 | – | – | 0.507 nM
CN(C)CCCOc1ccc(-c2ccc3ncc4c(c3c2)n([C@@H]2CCCOC2)c(=O)n4C)cn1 [Example 16, 8-[6-(3-dimethylaminopropoxy)pyridin-3-yl]-3-methyl-1-[(3R)-oxan-3-yl]imidazo[5,4-c]quinolin-2-one] | 714 | > 22800 | 311 | –
Cn1c(=O)n([C@H]2CCCOC2)c2c3cc(-c4ccc(OCCCN5CCCC5)nc4)ccc3ncc21 [Example 29, 3-methyl-1-[(3S)-oxan-3-yl]-8-[6-(3-pyrrolidin-1-ylpropoxy)pyridin-3-yl]imidazo[5,4-c]quinolin-2-one] | 605 | 19000 | 1650 | –
CO[C@H]1C[C@@H](n2c(=O)n(C)c3cnc4ccc(-c5ccc(OCCCN6CCCC6)nc5)cc4c32)C1 [Example 28, 1-(cis-3-methoxycyclobutyl)-3-methyl-8-[6-(3-pyrroldin-1-ylpropoxy)pyridin-3-yl]imidazo[4,5-c]quinolin-2-one] | 2770 | > 22800 | – | 0.176 nM
